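Each compound was tested at five concentrations against cells in 96-well plates for 48 hours. Abbreviation: GI50, concentration required for 50% inhibition of growth.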 Calls of active or inactive are those of the source. Rule as the data show it: active = GI50 up to about 1.1 µM and inactive = higher.
Tests used:
Assay in all cases: DTP human tumour cell line panel, 48 h
786-0 = test system: 786-0
A498 = test system: A498
A549 = test system: A549
ACHN = test system: ACHN
HOP-92 = test system: HOP-92
HT-29 = test system: HT-29
M14 = test system: M14
MCF7 = test system: MCF7
MDA-MB-231 = test system: MDA-MB-231
MOLT-4 = test system: MOLT-4
NCI-H226 = test system: NCI-H226
NCI-H23 = test system: NCI-H23
NCI-H522 = test system: NCI-H522
OVCAR-8 = test system: OVCAR-8
SF-268 = test system: SF-268
SF-295 = test system: SF-295
SF-539 = test system: SF-539
SNB-75 = test system: SNB-75
SW-620 = test system: SW-620
UO-31 = test system: UO-31

Measured: GI50

COC12COC(=O)C1C(c1ccc3c(c1)OCO3)c1cc3c(cc1O2)OCO3 (stereo not given)
inactive: 786-0 25.1 µM | A498 29.2 µM | A549 16.7 µM | ACHN 29.1 µM | HOP-92 37.8 µM | HT-29 6.44 µM | M14 13 µM | MCF7 14.3 µM | MDA-MB-231 25.4 µM | MOLT-4 7.11 µM | NCI-H226 34.3 µM | NCI-H23 35.6 µM | NCI-H522 6.14 µM | OVCAR-8 26.1 µM | SF-268 27.9 µM | SF-295 6.95 µM | SF-539 10.7 µM | SNB-75 7.71 µM | SW-620 8.49 µM | UO-31 28.4 µM

C=C(Br)C(C)(Br)CCC(Br)C(C)(C)Cl (stereo not given)
inactive: 786-0 17.8 µM | A498 20.8 µM | A549 > 54.7 µM | ACHN 19.1 µM | HOP-92 14.6 µM | HT-29 17.9 µM | M14 17.3 µM | MCF7 14.5 µM | MDA-MB-231 17.8 µM | MOLT-4 2.54 µM | NCI-H226 31 µM | NCI-H23 16.3 µM | NCI-H522 6.62 µM | OVCAR-8 17.8 µM | SF-268 17.9 µM | SF-295 16.9 µM | SF-539 16.8 µM | SNB-75 16.5 µM | SW-620 13 µM | UO-31 17.7 µM

COc1ccccc1C1(c2c(OC)c(=O)c2=O)SCCCS1
inactive: 786-0 > 100 µM | A498 49 µM | A549 74.8 µM | ACHN > 100 µM | HOP-92 19.2 µM | HT-29 > 100 µM | M14 > 100 µM | MCF7 > 100 µM | MDA-MB-231 83.2 µM | MOLT-4 72.4 µM | NCI-H226 85.7 µM | NCI-H23 48.3 µM | NCI-H522 27.4 µM | OVCAR-8 67.1 µM | SF-268 > 100 µM | SF-295 67 µM | SF-539 > 100 µM | SNB-75 71.8 µM | SW-620 > 100 µM | UO-31 > 100 µM

Nc1ccc(-c2nnc(-c3c(Cl)c(Cl)c(Cl)c(Cl)c3-c3nc4cc(C(=O)c5ccccc5)ccc4[nH]3)o2)cc1
inactive: 786-0 17.1 µM | A498 18.5 µM | A549 28.1 µM | ACHN 41.7 µM | HOP-92 27.2 µM | HT-29 20.5 µM | M14 16.6 µM | MCF7 16 µM | MDA-MB-231 19.3 µM | MOLT-4 15.9 µM | NCI-H226 18 µM | NCI-H23 33 µM | NCI-H522 13.5 µM | OVCAR-8 43.8 µM | SF-268 28.5 µM | SF-295 19.5 µM | SF-539 14.2 µM | SNB-75 24 µM | SW-620 29.5 µM | UO-31 35.7 µM
